# Reference: patent US20210038587A1, “METHODS AND COMPOSITIONS FOR TREATING NON-ERK MAPK PATHWAY INHIBITOR-RESISTANT CANCERS” (BIOMED VALLEY DISCOVERIES, INC., priority 2013, published 2021)
# Legend:
# Type in all cases: cell-based
# [1] = tested on: RKO MEK1 (Q56P/+) Clone 2; experiment: Single agent proliferation assay (CellTiter-Glo, 96 h); settings: RKO MEK1 Q56P/+ Cl.2
# Experimental: (§1) For assessment of drug sensitivity in cell-line models of acquired resistance, drug sensitivity of dose-escalated A375 cells and isogenic RKO cells was assessed in 96-hour proliferation assays. […] For the A375 assays Alamar blue (ThermoFisher) 10% (v/v) was added and incubated for 4 h, and fluorescent product was then detected using a BMG FLUOstar.
# (§2) RKO MEK1 Q56P Isogenic cells were produced by Horizon Discovery (Cambridge, UK; #HD 106-019) using a recombinant AAV-mediated gene targeting strategy. Briefly, rAAV virus was generated following transfection of the appropriate targeting vector and helper vectors in HEK293T cells, purified using an AAV purification kit (Virapur, San Diego, USA) and titrated using qPCR. Parental homozygous RKO cells (homozygous wild type for MEK1) were then infected with rAAV virus and clones that had integrated the selection cassette were identified by G418 selection and expanded. Correctly targeted clones that were heterozygous for knock-in of the MEK1 Q56P point mutation into a single allele were identified by PCR and sequencing.
# (§3) Compounds were prepared from DMSO stocks to give the desired final concentrations. The final DMSO concentration was constant at 0.1%. […] CellTiter-Glo® reagent (Promega, Madison, Wis.) was added according to manufacturer's instructions and luminescence detected using the BMG FLUOstar plate reader (BMG Labtech, Ortenberg, Germany).
# [2] = tested on: RKO MEK1 (Q56P/+) Clone 1; experiment: as above; settings: RKO MEK1 Q56P/+ Cl.1
# Experimental: as §1, §2, §3
# AN3Ca = experiment: Reverse Phase Protein Analysis (RPPA); settings: % change from DMSO (matched cell line)
# Experimental: (§4) Control wells were treated with DMSO at 0.1% (v/v) for 6 hours prior to cell lysate generation. Samples were then analyzed using reverse-phase protein microarray technology (Theranostics Health).
# (§5) Cell lines with common alterations in BRAF and RAS were assayed: BRAF^V600E mutant lines A375, Colo205, and HT29; KRAS^G12C-mutant cell line MIAPACa-2; KRAS^G13D-mutant cell line HCT116; and AN3Ca with atypical HRAS^F82L mutation. Changes in protein levels are shown as a percentage change from dimethyl sulfoxide (DMSO)-treated parental control (FIG. 32A and Table 23).
# HT29 = experiment: Reverse Phase Protein Analysis (RPPA); settings: % change from DMSO (matched cell line)
# Experimental: as §4, §5
# RKO Parental = experiment: Single agent proliferation assay (CellTiter-Glo, 96 h)
# Experimental: as §1, §3
compound,measurement,setting,value
O=C(Nc1ccc2[nH]nc(-c3ccncc3)c2c1)[C@@H]1CCN(CC(=O)N2CCN(c3ccc(-c4ncccn4)cc3)CC2)C1 [SCH772984],IC50,[1],120 nM
same,IC50,[2],140 nM
same,Avg (4ebp1 T70),AN3Ca,61.57%
same,Avg (Akt S473),AN3Ca,66.17%
same,Avg (Akt),AN3Ca,−16.35%
same,Avg (Bad S136),AN3Ca,5.26%
same,Avg (Bad S155),AN3Ca,12.92%
same,Avg (Bak),AN3Ca,9.73%
same,Avg (Bax),AN3Ca,0.15%
same,Avg (Bcl 2),AN3Ca,−5.14%
same,Avg (Bcl2 S70),AN3Ca,−12.42%
same,Avg (Bcl 2 T56),AN3Ca,−10.73%
same,Avg (Bim),AN3Ca,−14.09%
same,Avg (CREB S133),AN3Ca,3.64%
same,Avg (Caspase 3 CL D175),AN3Ca,1.25%
same,Avg (Caspase 7 Cl D198),AN3Ca,−24.17%
same,Avg (Chk1),AN3Ca,1.35%
same,Avg (Chk1 S345),AN3Ca,14.56%
same,Avg (Cyclin D1),AN3Ca,−11.33%
same,Avg (ERK 1 2),AN3Ca,−9.27%
same,Avg (ERK 1 2 T202 Y204),AN3Ca,19.75%
same,Avg (MAK1 S360),AN3Ca,−5.02%
same,Avg (Mcl1),AN3Ca,−7.15%
same,Avg (Raptor S792),AN3Ca,−4.03%
same,Avg (Raptor),AN3Ca,−11.09%
same,Avg (Rictor),AN3Ca,−10.89%
same,Avg (Stat1),AN3Ca,5.52%
same,Avg (Stat3),AN3Ca,−6.01%
same,Avg (bad S112),AN3Ca,−39.14%
same,Avg (c Fos),AN3Ca,−9.18%
same,Avg (c Myc),AN3Ca,0.88%
same,Avg (mTOR S2448),AN3Ca,−4.84%
same,Avg (mTOR S2481),AN3Ca,11.24%
same,Avg (mTOR),AN3Ca,−5.33%
same,Avg (p70 S6 Kinase),AN3Ca,−7.71%
same,Avg (p90 RSK S380),AN3Ca,−40.26%
same,Avg(S6 Ribo Prot S235 236),AN3Ca,−61.99%
same,Avg(S6 Ribo Prot S240 244),AN3Ca,−35.88%
same,Avg(Tuberin TSC2 Y1571),AN3Ca,13.44%
same,Avg(p70 S6 Kinase S371 S394),AN3Ca,24.56%
same,Avg(p70 S6 Kinase T389 T412),AN3Ca,−16.63%
same,Avg (4ebp1 T70),HT29,−40.58%
same,Avg (Akt S473),HT29,−22.14%
same,Avg (Akt),HT29,−16.93%
same,Avg (Bad S136),HT29,9.67%
same,Avg (Bad S155),HT29,−7.98%
same,Avg (Bak),HT29,2.78%
same,Avg (Bax),HT29,−20.59%
same,Avg (Bcl 2),HT29,−10.01%
same,Avg (Bcl2 S70),HT29,−11.45%
same,Avg (Bcl 2 T56),HT29,−17.9%
same,Avg (Bim),HT29,0.69%
same,Avg (CREB S133),HT29,9.87%
same,Avg (Caspase 3 CL D175),HT29,−7.9%
same,Avg (Caspase 7 Cl D198),HT29,7.02%
same,Avg (Chk1),HT29,14.64%
same,Avg (Chk1 S345),HT29,19.05%
same,Avg (Cyclin D1),HT29,−36.66%
same,Avg (ERK 1 2),HT29,−37%
same,Avg (ERK 1 2 T202 Y204),HT29,−74.84%
same,Avg (MAK1 S360),HT29,1.25%
same,Avg (Mcl1),HT29,14.05%
same,Avg (Raptor S792),HT29,−6.38%
same,Avg (Raptor),HT29,−12.18%
same,Avg (Rictor),HT29,−13.03%
same,Avg (Stat1),HT29,5.79%
same,Avg (Stat3),HT29,−2.15%
same,Avg (bad S112),HT29,−33.9%
same,Avg (c Fos),HT29,−9.26%
same,Avg (c Myc),HT29,13.55%
same,Avg (mTOR S2448),HT29,−22.65%
same,Avg (mTOR S2481),HT29,13.93%
same,Avg (mTOR),HT29,9.31%
same,Avg (p70 S6 Kinase),HT29,−2.36%
same,Avg (p90 RSK S380),HT29,−53.88%
same,Avg(S6 Ribo Prot S235 236),HT29,−44.9%
same,Avg(S6 Ribo Prot S240 244),HT29,−25.73%
same,Avg(Tuberin TSC2 Y1571),HT29,13.25%
same,Avg(p70 S6 Kinase S371 S394),HT29,−20.52%
same,Avg(p70 S6 Kinase T389 T412),HT29,−9.55%
same,IC50,RKO Parental,40 nM
